Data taken from patent US20140121201A1, “REGULATORY NETWORK FOR Th17 SPECIFICATION AND USES THEREOF” (priority 2012, published 2014).

B1: IRF4 (other, mouse, UniProt Q64287 1-450, looked up)
chain: MNLETGSRGSEFGMSAVSCGNGKLRQWLIDQIDSGKYPGLVWENEEKSVFRIPWKHAGKQDYNREEDAALFKAWALFKGKFREGIDKPDPPTWKTRLRCALNKSNDFEELVERSQLDISDPYKVYRIVPEGAKKGAKQLTLDDTQMAMGHPYPMTAPYGSLPAQQVHNYMMPPHDRSWRDYAPDQSHPEIPYQCPVTFGPRGHHWQGPSCENGCQVTGTFYACAPPESQAPGIPIEPSIRSAEALALSDCRLHICLYYRDILVKELTTTSPEGCRISHGHTYDVSNLDQVLFPYPDDNGQRKNIEKLLSHLERGLVLWMAPDGLYAKRLCQSRIYWDGPLALCSDRPNKLERDQTCKLFDTQQFLSELQVFAHHGRPAPRFQVTLCFGEEFPDPQRQRKLITAHVEPLLARQLYYFAQQNTGHFLRGYELPEHVTTPDYHRSLRHSSIQE
notes: Endogenous transcription factor, immunoprecipitated with an anti-IRF4 antibody from Th17-polarized cell lysate; also called Endogenous IRF4

Key:
[1] = tested on: primary human macrophages; details: cited from earlier work
[2] = molecular target: T1, STAT3 (mouse, UniProt P42227 2-770); assay: co-immunoprecipitation of endogenous IRF4 from Th17-polarized cell lysate, western blot for STAT3
T1 construct: Endogenous transcription factor, probed by western blot (anti-STAT3, Cell Signaling) in the IRF4 immunoprecipitate
Description: Naïve CD4 positive T cells were sorted and cultured under Th17 polarizing conditions for 48 h prior to assay. Whole cells lysates were prepared with high salt buffer (10 mM Tris, 420 mM NaCl, 0.5% NP40, 1 mM EDTA), sonicated, spun to remove insoluble particles, and diluted to a final concentration of 150 mM NaCl for co-immunoprecipitation. Endogenous IRF4 was immunoprecipitated using anti-IRF4 antibody in the presence or absence of 50 ug/ml ethidium bromide.

T1 sequence (P42227 2-770 limits assumed): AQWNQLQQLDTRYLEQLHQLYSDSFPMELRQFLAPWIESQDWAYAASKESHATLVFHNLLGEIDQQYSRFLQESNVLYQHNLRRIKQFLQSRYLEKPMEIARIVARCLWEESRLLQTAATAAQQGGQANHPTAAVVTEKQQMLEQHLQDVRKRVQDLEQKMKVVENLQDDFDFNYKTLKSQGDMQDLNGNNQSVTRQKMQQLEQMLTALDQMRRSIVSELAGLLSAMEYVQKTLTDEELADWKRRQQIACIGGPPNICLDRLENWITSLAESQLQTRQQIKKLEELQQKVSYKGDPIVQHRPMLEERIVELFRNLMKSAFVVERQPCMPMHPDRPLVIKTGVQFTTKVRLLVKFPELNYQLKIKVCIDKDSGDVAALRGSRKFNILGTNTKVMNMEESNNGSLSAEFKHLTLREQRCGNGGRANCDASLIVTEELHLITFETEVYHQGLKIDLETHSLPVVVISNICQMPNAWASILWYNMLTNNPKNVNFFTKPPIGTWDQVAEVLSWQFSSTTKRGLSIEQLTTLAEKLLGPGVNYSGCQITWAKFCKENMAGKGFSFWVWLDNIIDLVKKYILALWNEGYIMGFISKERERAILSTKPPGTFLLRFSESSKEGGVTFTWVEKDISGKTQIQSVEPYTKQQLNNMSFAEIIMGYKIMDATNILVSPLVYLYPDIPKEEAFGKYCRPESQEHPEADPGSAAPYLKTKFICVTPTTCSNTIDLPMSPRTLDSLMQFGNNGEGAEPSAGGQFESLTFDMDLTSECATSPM

Row | Molecule | IC50 [1] [µM] | binding result [2]
1 | CCOC(=O)CCNc1cc(N2CCc3ccccc3CC2)nc(-c2ccccn2)n1 [GSK-J4] | 9 | 
2 | B1 |  | no binding
